Results taken from paper PMC8807399, “Synthesis, Characterization, and in vivo Evaluation of a Novel Potent Autotaxin-Inhibitor” (Frontiers in Pharmacology, 2022).

Columns and labels:
Dopamine D1 receptor = molecular target: T1, Dopamine D1 receptor (Homo sapiens, UniProt P21728); assay: Off-target screen Dopamine D1; assay type: binding; settings: 10 µM; single point, duplicates
T1 construct: purchased Eurofins CEREP SA

S1P3 = molecular target: T2, S1P3 (Homo sapiens, UniProt Q99500); assay: Off-target screen S1P3, agonist mode; assay type: cell-based; settings: 10 µM, single point, duplicates
T2 construct: purchased Eurofins CEREP SA
T2 sequence (Q99500 whole entry): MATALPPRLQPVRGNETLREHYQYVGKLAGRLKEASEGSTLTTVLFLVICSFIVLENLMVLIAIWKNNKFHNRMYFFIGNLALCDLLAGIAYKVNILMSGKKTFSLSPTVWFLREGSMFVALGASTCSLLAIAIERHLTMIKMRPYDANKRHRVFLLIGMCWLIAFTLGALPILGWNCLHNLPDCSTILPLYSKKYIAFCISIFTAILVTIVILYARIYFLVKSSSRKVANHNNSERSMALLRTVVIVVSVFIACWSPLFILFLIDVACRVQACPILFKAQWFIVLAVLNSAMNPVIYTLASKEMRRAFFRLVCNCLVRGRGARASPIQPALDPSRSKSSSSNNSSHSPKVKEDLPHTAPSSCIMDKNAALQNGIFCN

HDAC4 = molecular target: T3, HDAC4 (Homo sapiens, UniProt P56524); assay: Off-target screen HDAC4; assay type: biochemical; settings: 10 µM; single point, duplicates
T3 construct: purchased Eurofins CEREP SA
T3 sequence (P56524 whole entry): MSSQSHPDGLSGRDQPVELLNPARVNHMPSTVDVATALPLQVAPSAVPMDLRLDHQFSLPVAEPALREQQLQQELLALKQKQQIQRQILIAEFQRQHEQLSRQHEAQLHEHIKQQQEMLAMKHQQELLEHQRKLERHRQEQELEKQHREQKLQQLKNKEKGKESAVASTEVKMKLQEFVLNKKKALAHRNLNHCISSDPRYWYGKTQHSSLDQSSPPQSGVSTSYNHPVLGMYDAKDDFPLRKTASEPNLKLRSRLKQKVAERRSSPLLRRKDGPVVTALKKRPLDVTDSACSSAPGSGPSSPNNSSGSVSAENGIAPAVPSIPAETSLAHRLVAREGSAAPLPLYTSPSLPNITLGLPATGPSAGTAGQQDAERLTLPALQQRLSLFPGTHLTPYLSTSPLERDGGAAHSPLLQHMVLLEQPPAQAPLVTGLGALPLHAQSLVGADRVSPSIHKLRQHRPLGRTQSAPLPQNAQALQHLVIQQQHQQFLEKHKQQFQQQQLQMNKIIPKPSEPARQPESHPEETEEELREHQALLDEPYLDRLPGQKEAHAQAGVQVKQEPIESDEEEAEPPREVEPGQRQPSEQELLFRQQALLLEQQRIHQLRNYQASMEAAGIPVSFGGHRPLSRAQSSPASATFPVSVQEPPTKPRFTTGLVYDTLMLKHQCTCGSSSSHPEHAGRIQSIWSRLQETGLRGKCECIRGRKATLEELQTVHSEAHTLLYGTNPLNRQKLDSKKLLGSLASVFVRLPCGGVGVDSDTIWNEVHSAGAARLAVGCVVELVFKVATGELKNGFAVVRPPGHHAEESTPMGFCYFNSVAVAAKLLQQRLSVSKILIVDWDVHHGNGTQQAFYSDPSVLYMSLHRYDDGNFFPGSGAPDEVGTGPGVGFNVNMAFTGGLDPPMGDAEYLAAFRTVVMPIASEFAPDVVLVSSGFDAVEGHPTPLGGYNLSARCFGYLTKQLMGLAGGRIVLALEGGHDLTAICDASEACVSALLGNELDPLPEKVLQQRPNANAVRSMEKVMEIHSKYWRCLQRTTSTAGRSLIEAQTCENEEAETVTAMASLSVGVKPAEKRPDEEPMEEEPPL

[1] = In vitro microsomal stability, rat; assay type: in vitro ADME; settings: rat microsomes, 1 µM; value of 10 = low clearance, essentially below detection limit
Protocol: Incubations of a test compound at a concentration of 1 µM with microsomes (0.5 mg/ml) from the appropriate species (human, mouse, or rat) plus cofactor NADPH were performed in 96-well plates at 37°C on a TECAN automated liquid handling system (Tecan Group Ltd., Männedorf, Switzerland). After pre-incubation of the test compound with the microsomes for 10 min, the enzymatic reaction was started by the addition of cofactors. Aliquots of the incubations are removed at 1, 3, 6, 9, 15, 25, 35, and 45 min and are then quenched with 1:3 (v/v) acetonitrile containing internal standards. Samples were then cooled and centrifuged before analysis of the supernatant by LC-MS/MS. Logarithmic Peak area ratios (test compound peak area/internal standard peak area) were plotted against incubation time and a linear fit made to the data with emphasis upon the initial rate of compound disappearance. The slope of the fit was then used to calculate the intrinsic clearance: Clint (µL/min/mg protein) = −slope (min-1) * 1,000/[protein concentration (mg/ml)].

EAG model rats = assay: Experimental autoimmune glaucoma (EAG) model; assay type: in vivo, rat; settings: ONA + ATX-i group; for IOP: 20 mg/kg food admix
Protocol: Calculations of the daily doses were based on average food intake of rats used in the studies. […] After mixing, ethanol was removed in vacuo until dryness.
The regular chow diet for the treatment groups was replaced with the same chow diet containing the treatment substance.
For the EAG model, preparation and immunization of the optic nerve antigen (ONA = bovine optic nerve homogenate) was carried out as previously described ([Laspas et al., 2011]; [Joachim et al., 2013]). Rats received an intraperitoneal injection with 8 mg/ml ONA. The antigen was mixed with incomplete Freund’s adjuvant (500 µl) plus 3 µg pertussis toxin (both Sigma Aldrich, St. Louis, MO, United States). The animals of the control group were injected with NaCl in Freund’s adjuvant and pertussis toxin. Rats were sacrificed 28 days after immunization.
Aqueous humor and serum were collected at the end of the EAG study. IgG levels were measured in serum and aqueous humor samples from the EAG study (both: 6-7 samples/group) using a sandwich enzyme-linked immunosorbent assay (ELISA) kit (eBioscience, Frankfurt, Germany) according to the manufacturer’s instructions. In brief, samples of aqueous humor from both groups were prediluted 1,000- or 2,000-fold in assay buffer, serum samples were diluted 100,000- or 200,000-fold in assay buffer. 75 µl of assay buffer were inserted into each sample well. 25 µl of the prediluted sample were added to the appropriate wells. All samples were incubated, and the absorbance was read at 405 nm using a microplate reader (AESKU.Reader with Gen5 ELISA Software, AESKU.DIAGNOSTICS, Wendelsheim, Germany) ([Reinehr et al., 2018]; [Tsai et al., 2018]).
The IOP was measured in both eyes of each animal in the EAG study with a rebound tonometer (Tonolab; iCare, Oy, Finland) 1 week before as well as 1, 2, and 3 weeks after immunization (n = 5–6 animals/group). The tonometer was held horizontally in front of the animal’s eye ([Pease et al., 2006]). 10 measurements per eye were recorded. From these values, the mean value was calculated ([Reinehr et al., 2019a]).
After explantation, eyes and optic nerves were fixed in 4% paraformaldehyde for 60 min (eyes) or 120 min (optic nerves) and then treated with 30% sucrose overnight. Afterwards, the retinas and optic nerves were embedded in NEG-50 Tissue-Tek medium (Thermo Fisher, Waltham, MA, United States). Cryo-cross sections of the eyes (10 µm) or longitudinal sections of the optic nerves (4 µm) were cut on a microtome (Thermo Fisher), mounted on Histobond Superfrost^+ slides (Thermo Fisher) and fixed in ice cold acetone for 10 min.
Longitudinal optic nerve sections (EAG: 5-6 nerves/group, I/R 14 days: 6-7 nerves/group) were stained with H&E and luxol fast blue (LFB). Of each staining, three areas per optic nerve section were documented with a microscope equipped with a CCD camera (Axio Imager M1; Zeiss) as previously described ([Palmhof et al., 2019]). One photo was taken of the proximal part, one of the middle and one of the distal part, right in front of the chiasma.
Cell infiltration in optic nerve sections stained with H&E was evaluated by using a scoring system ranging from 0 to 4 by a masked observer: 0 = no infiltration; 1 = mild cellular infiltration of the optic nerve or optic nerve sheath; 2 = moderate infiltration; 3 = severe infiltration; and 4 = massive infiltration of the optic nerve parenchyma and nodule infiltration ([Shindler et al., 2006]; [Horstmann et al., 2016]; [Renner et al., 2017]). The average score for each optic nerve was used for statistical analysis.
The grade of demyelination was monitored in optic nerve sections stained with LFB. Therefore, staining was scored from 0 to 2 and categorized as follows: 0 = no demyelination; 0.5 = mild demyelination; 1 = moderate demyelination; 1.5 = advanced demyelination; and 2 = severe demyelination up to dissolution of the tissue.

HDAC11 = molecular target: T4, HDAC11 (Homo sapiens, UniProt Q96DB2); assay: Off-target screen HDAC11; assay type: biochemical; settings: 10 µM; single point, duplicates
T4 construct: purchased Eurofins CEREP SA
T4 sequence (Q96DB2 whole entry): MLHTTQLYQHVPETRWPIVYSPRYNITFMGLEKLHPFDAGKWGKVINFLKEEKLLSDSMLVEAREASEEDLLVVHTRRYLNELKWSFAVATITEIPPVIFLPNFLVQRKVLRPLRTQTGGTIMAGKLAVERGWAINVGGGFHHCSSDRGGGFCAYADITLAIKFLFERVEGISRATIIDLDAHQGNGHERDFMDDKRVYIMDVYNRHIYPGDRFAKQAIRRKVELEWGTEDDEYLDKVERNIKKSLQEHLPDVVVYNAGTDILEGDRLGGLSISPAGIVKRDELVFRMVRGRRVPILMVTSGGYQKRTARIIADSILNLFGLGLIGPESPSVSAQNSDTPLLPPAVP

plasma ATX = plasma ATX (Rattus norvegicus, UniProt Q64610); assay: in vivo
Protocol: Plasma samples were collected in triplicates at 0, 1, 3, 6, and 24 h and were added to heparinated tubes and kept at 0°C until further processing. Sampling and immediate processing at 0°C is crucial for the measurements of basal levels, since at higher temperatures, LPA is produced rapidly according to the ATX activity in the sample. […] The other 2 aliquots were used to determine ATX activity by incubation of the sample at 37°C for 4 h, followed again by analysis of LPA levels in the same way as for the basal LPA levels.
For all doses (3, 10, and 30 mg/kg po), 5 animals/group were used. […] Values are mean ± SD.
To better observe the modulation of the individual LPA species, a second set of plasma samples was incubated at 37°C for 2 h prior to LC/MS analysis.

[2] = tested on: GABA-A (benzodiazepine site); assay: Off-target screen GABA-A (benzodiazepine site); settings: 10 µM; single point, duplicates
S1P1 = molecular target: T5, S1P1 (Homo sapiens, UniProt P21453); assay: Off-target screen S1P1, antagonist mode; assay type: cell-based; settings: 10 µM, single point, duplicates
T5 construct: purchased Eurofins CEREP SA
T5 sequence (P21453 whole entry): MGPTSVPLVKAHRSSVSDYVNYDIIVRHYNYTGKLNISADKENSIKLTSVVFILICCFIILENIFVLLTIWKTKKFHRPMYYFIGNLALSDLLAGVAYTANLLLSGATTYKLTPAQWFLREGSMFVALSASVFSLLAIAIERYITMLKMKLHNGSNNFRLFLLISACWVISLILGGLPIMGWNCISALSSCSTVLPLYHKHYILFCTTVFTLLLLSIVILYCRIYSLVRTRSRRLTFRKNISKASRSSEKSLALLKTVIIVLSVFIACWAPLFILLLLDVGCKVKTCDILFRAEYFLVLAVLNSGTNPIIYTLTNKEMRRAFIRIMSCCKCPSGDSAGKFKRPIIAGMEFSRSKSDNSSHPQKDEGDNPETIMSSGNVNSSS

Histamine H2 receptor = molecular target: T6, Histamine H2 receptor (Homo sapiens, UniProt P25021); assay: Off-target screen Histamine H2; assay type: binding; settings: 10 µM; single point, duplicates
T6 construct: purchased Eurofins CEREP SA
T6 sequence (P25021 whole entry): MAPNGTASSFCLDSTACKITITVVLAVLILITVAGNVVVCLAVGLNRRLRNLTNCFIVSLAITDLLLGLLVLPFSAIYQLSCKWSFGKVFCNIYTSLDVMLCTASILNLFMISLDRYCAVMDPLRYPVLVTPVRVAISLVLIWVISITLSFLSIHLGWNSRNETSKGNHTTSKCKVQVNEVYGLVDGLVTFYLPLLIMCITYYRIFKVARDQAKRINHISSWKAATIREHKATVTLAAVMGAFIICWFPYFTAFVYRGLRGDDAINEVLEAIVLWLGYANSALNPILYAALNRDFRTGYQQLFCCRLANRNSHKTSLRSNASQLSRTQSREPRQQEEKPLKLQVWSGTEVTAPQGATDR

[3] = tested on: Nicotinic receptor (muscle); assay: Off-target screen Nicotinic receptor (muscle); settings: 10 µM; single point, duplicates
HDAC6 = molecular target: T7, HDAC6 (Homo sapiens, UniProt Q9UBN7); assay: Off-target screen HDAC6; assay type: biochemical; settings: 10 µM; single point, duplicates
T7 construct: purchased Eurofins CEREP SA
T7 sequence (Q9UBN7 whole entry): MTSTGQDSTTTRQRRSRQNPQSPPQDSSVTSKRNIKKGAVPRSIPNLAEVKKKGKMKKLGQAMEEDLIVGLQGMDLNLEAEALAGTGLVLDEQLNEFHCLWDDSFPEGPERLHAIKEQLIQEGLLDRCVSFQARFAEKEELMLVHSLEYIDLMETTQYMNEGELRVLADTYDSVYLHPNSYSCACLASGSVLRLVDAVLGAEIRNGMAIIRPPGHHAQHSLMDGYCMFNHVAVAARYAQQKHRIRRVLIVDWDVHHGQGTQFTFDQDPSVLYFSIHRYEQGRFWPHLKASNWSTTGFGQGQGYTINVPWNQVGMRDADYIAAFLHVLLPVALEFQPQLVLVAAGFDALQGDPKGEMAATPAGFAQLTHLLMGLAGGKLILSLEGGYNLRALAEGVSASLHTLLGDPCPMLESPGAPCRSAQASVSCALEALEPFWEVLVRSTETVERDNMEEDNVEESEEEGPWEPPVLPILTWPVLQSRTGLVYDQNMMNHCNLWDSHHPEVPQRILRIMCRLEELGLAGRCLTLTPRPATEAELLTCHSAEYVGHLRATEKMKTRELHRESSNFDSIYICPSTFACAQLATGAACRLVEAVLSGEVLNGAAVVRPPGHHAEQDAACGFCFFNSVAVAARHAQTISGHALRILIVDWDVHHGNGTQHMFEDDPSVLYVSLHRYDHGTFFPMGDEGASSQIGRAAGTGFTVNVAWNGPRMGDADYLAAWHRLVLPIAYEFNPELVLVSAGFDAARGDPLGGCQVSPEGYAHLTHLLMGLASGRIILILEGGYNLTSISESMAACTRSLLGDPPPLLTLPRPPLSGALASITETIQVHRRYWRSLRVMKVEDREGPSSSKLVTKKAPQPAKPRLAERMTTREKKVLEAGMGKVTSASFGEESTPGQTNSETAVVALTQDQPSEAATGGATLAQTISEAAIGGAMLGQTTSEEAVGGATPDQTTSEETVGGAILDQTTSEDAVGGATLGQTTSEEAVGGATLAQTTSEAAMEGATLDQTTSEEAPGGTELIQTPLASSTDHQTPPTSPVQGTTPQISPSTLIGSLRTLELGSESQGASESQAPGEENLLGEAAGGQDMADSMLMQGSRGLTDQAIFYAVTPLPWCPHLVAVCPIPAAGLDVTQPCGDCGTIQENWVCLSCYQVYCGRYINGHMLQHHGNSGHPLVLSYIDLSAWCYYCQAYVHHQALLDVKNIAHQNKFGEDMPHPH

T1 sequence (P21728 whole entry): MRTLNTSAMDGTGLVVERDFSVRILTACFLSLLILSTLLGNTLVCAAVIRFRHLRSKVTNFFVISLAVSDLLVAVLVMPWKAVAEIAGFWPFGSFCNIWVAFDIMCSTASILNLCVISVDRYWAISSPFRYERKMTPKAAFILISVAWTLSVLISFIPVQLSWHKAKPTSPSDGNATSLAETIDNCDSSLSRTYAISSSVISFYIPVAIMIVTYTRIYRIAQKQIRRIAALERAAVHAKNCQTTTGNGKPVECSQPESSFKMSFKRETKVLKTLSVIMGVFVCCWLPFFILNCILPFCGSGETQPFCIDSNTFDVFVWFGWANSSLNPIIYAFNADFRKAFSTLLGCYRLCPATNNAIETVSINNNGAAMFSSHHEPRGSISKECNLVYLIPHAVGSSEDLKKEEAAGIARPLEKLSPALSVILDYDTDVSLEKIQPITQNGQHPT

SMILES: O=C(OCc1ccc(OC(F)(F)F)cc1)N1C[C@@H]2CN(C(=O)c3ccc4[nH]nnc4c3)C[C@H]2C1 [Compound 13, (3aS,6aS)-5-(1H-Benzotriazole-5-carbonyl)-hexahydro-pyrrolo[3,4-c]pyrrole-2-carboxylic acid 4-trifluoromethoxy-benzyl ester]
- Dopamine D1 receptor (h) [% inhib] (Dopamine D1 receptor): 0 % inhib
- S1P3 (h), agonist mode [% pos ctrl] (S1P3): 8 % pos ctrl
- HDAC4 (h) [% inhib] (HDAC4): 3 % inhib
- Mic CL r [1]: 10/10/10 µL/m/mg prot
- IOP (EAG model rats; 1 week after immunization, ONA 10.44 ± 0.62, control 11.26 ± 0.54): 10.54 ± 0.40 mmHg
- IOP (EAG model rats; 1 week before immunization, ONA 10.34 ± 0.67, control 10.36 ± 1.03): 10.91 ± 0.50 mmHg
- IOP (EAG model rats; 2 weeks after immunization, ONA 10.74 ± 0.55, control 11.36 ± 0.52): 10.85 ± 0.42 mmHg
- IOP (EAG model rats; 3 weeks after immunization, ONA 10.77 ± 0.77, control 11.47 ± 0.62): 10.69 ± 0.60 mmHg
- ED1+ and Iba1+ active microglia, optic nerve (EAG model rats; 28 days, ONA 0.27 ± 0.24, control 0.06 ± 0.11): 0.22 ± 0.10 cells/image
- Iba1+ microglia, optic nerve (EAG model rats; 28 days, ONA 3.14 ± 0.94, control 1.28 ± 0.15): 2.96 ± 0.92 cells/image
- ED1+ and Iba1+ microglia, retina (EAG model rats; 28 days, ONA 7.70 ± 6.27, control 1.52 ± 1.28): 5.08 ± 1.86 cells/mm
- GFAP area, retina (EAG model rats; 28 days, ONA 13.55 ± 3.42, control 9.72 ± 0.84): 10.30 ± 2.29 area [%]/section
- Iba1+ microglia cell count, retina (EAG model rats; 28 days, ONA 22.06 ± 7.81, control 13.67 ± 3.04): 19.76 ± 2.82 cells/mm
- Brn-3a+ RGC number, retina (EAG model rats; 28 days, ONA 29.47 ± 6.20, control 58.11 ± 4.22, p = 0.032 vs ONA): 38.59 ± 4.33 cells/mm
- Optic nerve LFB score (EAG model rats; 28 days, score 0-2, ONA 0.58 ± 0.20, control 0.31 ± 0.13): 0.77 ± 0.66
- GFAP score, optic nerve (EAG model rats; 28 days, score 0-2, ONA 0.81 ± 0.17, control 0.71 ± 0.26): 1.00 ± 0.29
- Optic nerve SMI-32 score (EAG model rats; 28 days, score 0-2, ONA 0.91 ± 0.08, control 0.58 ± 0.14): 0.75 ± 0.19
- Optic nerve H&E score (EAG model rats; 28 days, score 0-4, ONA 1.22 ± 0.43, control 0.80 ± 0.51): 1.27 ± 0.86
- Serum IgG level (EAG model rats; end of EAG study, ONA 15.78 ± 5.00, control 8.31 ± 5.76): 12.30 ± 2.70 mg/mL
- Aqueous humor IgG level (EAG model rats; end of EAG study, ONA 272.24 ± 98.17, control 62.31 ± 19.91, p = 0.025 vs ONA): 167.26 ± 34.50 µg/mL
- HDAC11 (h) [% inhib] (HDAC11): 0 % inhib
- IC50 (plasma ATX): ~1.47 nM
- GABA-A (benzodiazepine site) (r) [% inhib] [2]: -26 % inhib
- S1P1 (h), antago. mode [% inhib] (S1P1): 8 % inhib
- Histamine H2 receptor (h) [% inhib] (Histamine H2 receptor): 12 % inhib
- Nicotinic receptor (muscle) (h) [% inhib] [3]: 3 % inhib
- HDAC6 (h) [% inhib] (HDAC6): -14 % inhib
